Measurements: patent publication US11827628B2, “Compositions and methods for inhibition of the JAK pathway” (Rigel Pharmaceuticals, Inc., priority 2005, dated 2023)
Like-named read-outs stand apart in the source and are kept apart here.

Legend:
Primary human T-cells = experiment: Primary Human T-Cell Proliferation Assay Stimulated with IL-2 (CellTiter-Glo); type: cell-based; settings: read-out: IC50, Example 42
Summary of the method: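 Peripheral blood T-cells pre-activated with anti-CD3/anti-CD28 and IL-2 were washed free of IL-2, then cultured with compound plus IL-2 for 72 hours at 37° C, duplicate wells. Viability read as ATP by CellTiter-Glo luminescence; IC50 reported.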

[1] = test system: IL-4 stimulated expression of CD23 in human Ramos B cells (JAK-1 and JAK-3); experiment: Assay for Ramos B-Cell Line Stimulated with IL-4 (CD23 upregulation, FACS); type: cell-based; settings: read-out: IC50, Example 41
Summary of the method: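 Steps: Ramos B cells are suspended in RPMI with 5% serum, exposed to compound for 1 h at 37 °C, stimulated with IL-4 (final 50 units/mL) for 20-24 h, stained for CD23 and analysed by flow cytometry. IC50 is calculated.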

[2] = Homo sapiens, T-cell, primary human T-cell proliferation stimulated with IL-2
[3] = Homo sapiens, Ramos, Ramos B-cell line stimulated with IL-4, CD23 expression by FACS
[4] = Homo sapiens, T-cell, primary human T-cells stimulated with IL-2, proliferation
[5] = Homo sapiens, Ramos, Ramos B cells stimulated with IL-4, CD23 expression by FACS
[6] = primary human T-cells stimulated with IL-2, proliferation
[7] = Ramos B cells stimulated with IL-4, CD23 expression by FACS
[8] = primary human T-cell proliferation stimulated with IL-2
[9] = Ramos B-cell line stimulated with IL-4, CD23 expression by FACS

Which results are given for Cc1ccc(Nc2ncc(F)c(Nc3ccc(OC4CCN(C)CC4)c(Cl)c3)n2)cc1S(N)(=O)=O [II-8, N2-(3-Aminosulfonyl-4-methylphenyl)-5-fluoro-N4-{3-chloro-4-[(1-methylpiperidin-4-yl)oxy]phenyl}-2,4-pyrimidinediamine]?
IC50 (Primary human T-cells; [2]): 564 nM; IC50 [1, 3]: 38.8 nM

NS(=O)(=O)c1cc(Nc2ncc(F)c(Nc3ccc(C(F)(F)F)c(Cl)c3)n2)ccc1Cl [VI-44, N2-(3-Aminosulfonyl-4-chlorophenyl)-N4-(3-chloro-4-trifluoromethyl-phenyl)-5-fluoro-2,4-pyrimidinediamine] was tested. Which IC50 (Primary human T-cells; [4]) did it give?
Its IC50 is 7310 nM.

And the IC50 [1, 5]?
The IC50 was 429 nM.

Which results are given for NS(=O)(=O)c1ccc(Nc2ncc(F)c(Nc3ccc(-c4cnco4)cc3)n2)cc1 [IV-8, N2-(4-Aminosulfonylphenyl)-5-fluoro-N4-[4-(1,3-oxazol-5-yl)phenyl]-2,4-pyrimidinediamine]?
IC50 (Primary human T-cells; [4]): 627 nM; IC50 [1, 5]: 166 nM

For CCNC(=O)NCCc1ccc(Nc2nc(Nc3cccc(S(N)(=O)=O)c3)ncc2F)cc1 [III-123, N2-(3-aminosulfonyl)phenyl-N4-[4-(2-ethylaminocarbonylamino)ethyl]phenyl-5-fluoro-2,4-pyrimidinediamine], which IC50 (Primary human T-cells; [6]) is on record?
Its IC50 is 1390 nM.

And the IC50 [1, 7]?
The IC50 was 173 nM.

What does the source list for CNC(=O)COc1ccc(Nc2nc(Nc3cccc(S(N)(=O)=O)c3)ncc2F)cc1Cl [Compound I-147, N2-(3-Aminosulfonylphenyl)-N4-(3-chloro-4-methylaminocarbonylmethoxyphenyl)-5-fluoro-2,4-pyrimidinediamine]?
IC50 (Primary human T-cells; [2]): 174 nM; IC50 [1, 3]: 79.9 nM

With NS(=O)(=O)c1cccc(Nc2ncc(F)c(Nc3ccc(OCc4ccccn4)c(Cl)c3)n2)c1 [Compound I-171, N2-(3-Aminosulfonylphenyl)-5-fluoro-N4-[4-(2-pyridinyl)-3-chloromethyleneoxyphenyl]-2,4-pyrimidinediamine] as the compound, how does the IC50 (Primary human T-cells; [8]) read?
Its IC50 is 415 nM.

And the IC50 [1, 9]?
Its IC50 is 117 nM.

Which results are given for COc1c(C)cc(Nc2ncc(F)c(Nc3ccc4c(c3)NC(=O)C(F)(F)O4)n2)cc1S(N)(=O)=O [VII-38, N2-(3-Aminosulfonyl-4-methoxy-5-methylphenyl)-N4-(2,2-difluoro-4H-benz[1,4]oxazin-3-on-6-yl)-5-fluoro-2,4-pyrimidinediamine]?
IC50 (Primary human T-cells; [4]): 417 nM; IC50 [1, 5]: 62.3 nM

How did the IC50 (Primary human T-cells; [6]) turn out when “N2-(3-Aminosulfonylphenyl)-N4-(4-chloro-3-trifluoromethylphenyl)-5-fluoro-2,4-pyrimidinediamine [VI-38]” was run?
Its IC50 is 2070 nM.

And the IC50 [1, 7]?
Its IC50 is 414 nM.

With NS(=O)(=O)c1cccc(Nc2ncc(F)c(Nc3ccc(CNC(=O)C4CC4)cc3)n2)c1 [III-42, N2-(3-aminosulfonyl)phenyl-N4-(4-cyclopropylcarbonylaminomethyl)phenyl-5-fluoro-2,4-pyrimidinediamine] as the compound, how does the IC50 (Primary human T-cells; [8]) read?
Its IC50 is 641 nM.

What about the IC50 [1, 9] of the same compound?
The IC50 was 294 nM.

Cc1ccc(Nc2ncc(F)c(Nc3ccc(C(C)(C)C)cc3)n2)cc1S(N)(=O)=O [VI-36, N2-(3-Aminosulfonyl-4-methylphenyl)-N4-(4-tert-butylphenyl)-5-fluoro-2,4-pyrimidinediamine] was tested. Which IC50 (Primary human T-cells; [4]) did it give?
The IC50 was 4500 nM.

And the IC50 [1, 5]?
The IC50 was 374 nM.

Which IC50 (Primary human T-cells; [6]) does the source give for Cc1ccc(Nc2ncc(F)c(Nc3ccc(OCC(F)(F)F)cc3)n2)cc1S(N)(=O)=O [VI-46, N2-(3-Aminosulfonyl-4-methylphenyl)-5-fluoro-N4-(4-trifluoromethylmethyleneoxyphenyl)-2,4-pyrimidinediamine] here?
Its IC50 is 1260 nM.

What about the IC50 [1, 7] of the same compound?
The IC50 was 144 nM.

What does the source list for NS(=O)(=O)c1ccc(Nc2ncc(F)c(NCCc3ccc(-c4ccncc4)cc3)n2)cc1 [III-79, N2-(4-Aminosulfonylphenyl)-5-fluoro-N4-[4-(4-pyridinyl)phenethyl]-2,4-pyrimidinediamine]?
IC50 (Primary human T-cells; [2]): 967 nM; IC50 [1, 3]: 169 nM

For “N2-(3-Aminocarbonyl-5-methylphenyl)-5-fluoro-N2-[4-(1H-pyrazol-5-yl)amidophenyl)-2,4-pyrimidinediamine [II-22]”, which IC50 (Primary human T-cells; [8]) is on record?
The IC50 was 7490 nM.

And the IC50 [1, 9]?
The IC50 was 858 nM.

What does the source list for NS(=O)(=O)c1cccc(Nc2ncc(F)c(Nc3ccc(Cc4cc[n+]([O-])cc4)cc3)n2)c1 [III-80, N2-(3-Aminosulfonylphenyl)-5-fluoro-N4-[4-(1-oxido-4-pyridylmethyl)phenyl]-2,4-pyrimidinediamine]?
IC50 (Primary human T-cells; [2]): 844 nM; IC50 [1, 3]: 3160 nM

Which IC50 (Primary human T-cells; [4]) does the source give for NS(=O)(=O)c1ccc(Nc2ncc(F)c(Nc3ccc(Cl)c(Cl)c3)n2)cc1 [VI-109, N2-(4-Aminosulfonylphenyl)-N4-(3,4-dichlorophenyl)-5-fluoro-2,4-pyrimidinediamine] here?
Its IC50 is 2870 nM.

And the IC50 [1, 5]?
The IC50 was 136 nM.

What does the source list for CCCN(Cc1ccc(Nc2nc(Nc3ccc(C)c(S(N)(=O)=O)c3)ncc2F)cc1)C(N)=O [III-127, N2-(3-aminosulfonyl-4-methyl)phenyl-N4-[4-(N-carbamoyl-N-propyl)aminomethyl]phenyl-5-fluoro-2,4-pyrimidinediamine]?
IC50 (Primary human T-cells; [6]): 612 nM; IC50 [1, 7]: 198 nM

Which IC50 (Primary human T-cells; [6]) does the source give for Cc1ccc(Nc2ncc(F)c(NC3CN(Cc4ccccc4)CCC3C)n2)cc1S(N)(=O)=O (racemic) [VII-3, Racemic N2-(3-aminosulfonyl-4-methylphenyl)-N4-(1-benzyl-4-methylpiperidin-3-yl)-5-fluoro-2,4-pyrimidinediamine] here?
The IC50 was 16500 nM.

What about the IC50 [1, 7] of the same compound?
The IC50 was 14100 nM.

With Cc1cc(COc2ccc(Nc3nc(Nc4ccc(C)c(S(N)(=O)=O)c4)ncc3F)cn2)no1 [Compound V-1, N2-(3-Aminosulfonyl-4-methylphenyl)-5-fluoro-N4-[2-(5-methylisoxazol-3-yl)methyleneoxypyridin-5-yl]-2,4-pyrimidinediamine] as the compound, how does the IC50 (Primary human T-cells; [6]) read?
Its IC50 is 9770 nM.

What about the IC50 [1, 7] of the same compound?
Its IC50 is 2000 nM.

With CN1C(=O)COc2ccc(Nc3nc(Nc4ccc(S(N)(=O)=O)cc4)ncc3F)cc21 [VII-40, N2-(4-Aminosulfonylphenyl)-5-fluoro-N4-(4-methyl-3-oxo-benz[1,4]oxazin-6-yl)-2,4-pyrimidinediamine] as the compound, how does the IC50 (Primary human T-cells; [4]) read?
Its IC50 is 6480 nM.

What about the IC50 [1, 5] of the same compound?
The IC50 was 236 nM.

What does the source list for CN1C(=O)COc2ccc(Nc3nc(Nc4cccc(S(N)(=O)=O)c4)ncc3F)cc21 [VII-41, N2-(3-Aminosulfonylphenyl)-5-fluoro-N4-(4-methyl-3-oxo-benz[1,4]oxazin-6-yl)-2,4-pyrimidinediamine]?
IC50 (Primary human T-cells; [4]): 264 nM; IC50 [1, 5]: 46.9 nM

COc1cc(Nc2ncc(F)c(Nc3cccc(OCC#N)c3)n2)ccc1S(N)(=O)=O [Compound I-7, N2-(4-Aminosulfonyl-3-methoxy)phenyl-N4-(3-cyanomethoxy)phenyl-5-fluoro-2,4-pyrimidinediamine] was tested. Which IC50 (Primary human T-cells; [8]) did it give?
The IC50 was 502 nM.

What about the IC50 [1, 9] of the same compound?
Its IC50 is 120 nM.

Which results are given for CNC(=O)COc1ccc(Nc2nc(Nc3ccc(Cl)c(S(N)(=O)=O)c3)ncc2C)cc1Cl [Compound I-153, N2-(3-Aminosulfonyl-4-chlorophenyl)-N4-(3-chloro-4-methylaminocarbonylmethoxyphenyl)-5-methyl-2,4-pyrimidinediamine]?
IC50 (Primary human T-cells; [2]): 334 nM; IC50 [1, 3]: 114 nM

How did the IC50 (Primary human T-cells; [2]) turn out when NC(=O)NCc1ccc(Nc2nc(Nc3cccc(S(N)(=O)=O)c3)ncc2F)cc1 [III-33, N4-(4-Aminocarbonylaminomethylphenyl)-N2-(3-aminosulfonylphenyl)-5-fluoro-2,4-pyrimidinediamine] was run?
Its IC50 is 852 nM.

And the IC50 [1, 3]?
Its IC50 is 1680 nM.

CC(C)(C)c1ccc(Nc2nc(Nc3ccc(Cl)c(S(N)(=O)=O)c3)ncc2F)cc1 [VI-43, N2-(3-Aminosulfonyl-4-chlorophenyl)-N4-(4-tert-butylphenyl)-5-fluoro-2,4-pyrimidinediamine] was tested. Which IC50 (Primary human T-cells; [4]) did it give?
The IC50 was 6140 nM.

What about the IC50 [1, 5] of the same compound?
Its IC50 is 739 nM.

With NS(=O)(=O)c1cccc(Nc2ncc(F)c(Nc3ccc(OCc4ccncc4)cc3)n2)c1 [Compound I-193, N2-(3-Aminosulfonylphenyl)-5-fluoro-N4-[4-(4-pyridinyl)methyleneoxyphenyl]-2,4-pyrimidinediamine] as the compound, how does the IC50 (Primary human T-cells; [8]) read?
Its IC50 is 55.6 nM.

What about the IC50 [1, 9] of the same compound?
The IC50 was 38.2 nM.

Cc1ccc(Nc2ncc(F)c(Nc3ccc(CCOC(=O)N(C)C)cc3)n2)cc1S(N)(=O)=O [III-56, N2-(3-Aminosulfonyl-4-methylphenyl)-N4-{4-[2-(dimethylaminocarbonyloxy)ethyl]phenyl}-5-fluoro-2,4-pyrimidinediamine] was tested. Which IC50 (Primary human T-cells; [2]) did it give?
Its IC50 is 499 nM.

What about the IC50 [1, 3] of the same compound?
Its IC50 is 196 nM.
